What all share (assay type): cell-based
The test system of one assay is S. aureus UC9213. Nature of the assay: MIC by standard agar dilution, S. aureus UC9213. To be noted: Staphylococcus aureus, UC9213, Mueller Hinton agar, incubated overnight at 35° C. The text has this:
(§1) The in vitro activity of compounds of the subject invention may be assessed by standard testing procedures such as the determination of minimum inhibitory concentration (MIC) by agar dilution as described in “Approved Standard. Methods for Dilution Antimicrobial Susceptibility Tests for Bacteria that Grow Aerobically,” 3rd ed., published 1993 by the National Committee for Clinical Laboratory standards, Villanova, Pa., USA.
(§2) The in vitro MICs of test compounds may be determined by a standard agar dilution method. A stock drug solution of each analog is prepared in a preferred solvent, usually DMSO:H2O (1:3). Serial 2-fold dilutions of each sample are made using 1.0 mL aliquots of sterile distilled water. To each 1.0 mL aliquot of drug is added 9 mL of molten Mueller Hinton agar medium. The drug-supplemented agar is mixed, poured into 15×100 mm petri dishes, and allowed to solidify and dry prior to inoculation.
(§3) Vials of each of the test organisms are maintained frozen in the vapor phase of a liquid nitrogen freezer. Test cultures are grown overnight at 35° C. on the medium appropriate for the organism. Colonies are harvested with a sterile swab, and cell suspensions are prepared in Trypticase Soy broth (TSB) to equal the turbidity of a 0.5 McFarland standard. A 1:20 dilution of each suspension is made in TSB. The plates containing the drug supplemented agar are inoculated with a 0.001 mL drop of the cell suspension using a Steers replicator, yielding approximately 10^4 to 10^5 cells per spot. The plates are incubated overnight at 35° C.
(§4) Following incubation the Minimum Inhibitory Concentration (MIC μg/mL), the lowest concentration of drug that inhibits visible growth of the organism, is read and recorded.

The test system of another assay is S. pneumoniae UC9912. Put plainly: MIC by standard agar dilution, S. pneumoniae UC9912. The settings on record: Streptococcus pneumoniae, UC9912, Mueller Hinton agar, incubated overnight at 35° C.
Excerpt: as §1, §2, §3, §4
For orientation: Agar dilution tests growth on a series of plates holding different concentrations.

The test system of another assay is H. influenzae 30063. Nature of the assay: MIC by standard agar dilution, H. influenzae 30063.
Excerpt: as §1, §2, §3, §4

The mark [1] stands for this setting: Haemophilus influenzae, 30063, agar dilution, Mueller Hinton agar, incubated overnight at 35° C., read-out: H. influenzae 30063 MIC.

Values after ≈ are worked out from the molar mass of the structure shown. Like-named read-outs stand apart in the source and are kept apart here. Where only a bound is given, the exact number is not on record here.

As to `CC(=O)NC[C@H]1CN(c2ccc([C@H]3[C@@H]4CS(=O)(=O)C[C@@H]43)cc2)C(=O)O1` [Example 19, N-[((5S)-3-{4-[exo-(1R,5S)-3,3-dioxido-3-thiabicyclo[3.1.0]hex-6-yl]phenyl}-2-oxo-1,3-oxazolidin-5-yl)methyl]acetamide], the MIC against S. aureus UC9213 was 4 µg/mL (≈ 11 µM); in the assay on S. pneumoniae UC9912, 1 µg/mL (≈ 2.74 µM); in the assay with H. influenzae 30063 (setting [1]) it was 8 µg/mL (≈ 22 µM).
Regarding `NC(=O)[C@H]1CN(c2ccc([C@H]3[C@@H]4CS(=O)(=O)C[C@@H]43)c(F)c2)C(=O)O1` [Example 20, (5R)-3-{4-[exo-(1R,5S)-3,3-dioxido-3-thiabicyclo[3.1.0]hex-6-yl]-3-fluorophenyl}-2-oxo-1,3-oxazolidine-5-carboxamide], the MIC was 2 µg/mL (≈ 5.64 µM) in the assay with S. aureus UC9213, 2 µg/mL (≈ 5.64 µM) against S. pneumoniae UC9912 and greater than 64 µg/mL in the assay with H. influenzae 30063 (setting [1]). Further, the “H. influenzae 30063 MIC” value in the assay on H. influenzae 30063 (agar dilution, Mueller Hinton agar, incubated overnight at 35° C.) was greater than 64 µg/mL.
With `CCC(=O)NC[C@H]1CN(c2ccc([C@H]3[C@@H]4CNC[C@@H]43)c(F)c2)C(=O)O1` [Example 21, N-[((5S)-3-{4-[exo-(1R,5S)-3-azabicyclo[3.1.0]hex-6-yl]-3-fluorophenyl}-2-oxo-1,3-oxazolidin-5-yl)methyl]proyanamide], the MIC against S. aureus UC9213 amounted to 4 µg/mL (≈ 11.5 µM); in the assay on S. pneumoniae UC9912 it was 1 µg/mL (≈ 2.88 µM); with H. influenzae 30063 (setting [1]), 8 µg/mL (≈ 23 µM).
For the compound `CCC(=O)NC[C@H]1CN(c2ccc([C@H]3[C@@H]4CN(C=O)C[C@@H]43)c(F)c2)C(=O)O1` [Example 22, N-[((5S)-3-{3-fluoro-4-[exo-(1R,5S)-3-formyl-3-azabicyclo[3.1.0]hex-6-yl]phenyl}-2-oxo-1,3-oxazolidin-5-yl)methyl]propanamide], the MIC against S. aureus UC9213 was 1 µg/mL (≈ 2.66 µM); against S. pneumoniae UC9912, 0.5 µg/mL (≈ 1.33 µM); with H. influenzae 30063 (setting [1]), 8 µg/mL (≈ 21.3 µM).
Regarding `CCC(=O)NC[C@H]1CN(c2ccc([C@H]3[C@@H]4CN(C(N)=O)C[C@@H]43)c(F)c2)C(=O)O1` [Example 23, exo-(1R,5S)-6-(4-{(5S)-5-[(propanoylamino)methyl]-2-oxo-1,3-oxazolidin-3-yl}-2-fluorophenyl)-3-azabicyclo[3.1.0]hexane-3-carboxamide], the MIC turned out to be 1 µg/mL (≈ 2.56 µM) against S. aureus UC9213, 0.25 µg/mL (≈ 0.64 µM) in the assay with S. pneumoniae UC9912 and 4 µg/mL (≈ 10.2 µM) in the assay on H. influenzae 30063 (setting [1]).
In the case of `CCC(=O)NC[C@H]1CN(c2ccc([C@H]3[C@@H]4CN(C(=O)NC)C[C@@H]43)c(F)c2)C(=O)O1` [Example 24, exo-(1R,5S)-6-(4-{(5S)-5-[(propanoylamino)methyl]-2-oxo-1,3-oxazolidin-3-yl]-2-fluorophenyl)-3-azabicyclo[3.1.0]hexane-3-methylcarboxamide], the MIC was determined as 4 µg/mL (≈ 9.89 µM) against S. aureus UC9213, 2 µg/mL (≈ 4.95 µM) in the assay on S. pneumoniae UC9912 and 16 µg/mL (≈ 39.6 µM) in the assay on H. influenzae 30063 (setting [1]).
Turning to `CCNC(=O)N1C[C@@H]2[C@H](C1)[C@H]2c1ccc(N2C[C@H](CNC(=O)CC)OC2=O)cc1F` [Example 25, exo-(1R,5S)-6-(4-{(5S)-5-[(propanoylamino)methyl]-2-oxo-1,3-oxazolidin-3-yl}-2-fluorophenyl)-3-azabicyclo[3.1.0]hexane-3-ethylcarboxamide], the MIC in the assay with S. aureus UC9213 is 8 µg/mL (≈ 19.1 µM); in the assay with S. pneumoniae UC9912 it was 4 µg/mL (≈ 9.56 µM); with H. influenzae 30063 (setting [1]), 32 µg/mL (≈ 76.5 µM).
Take `CCC(=O)NC[C@H]1CN(c2ccc([C@H]3[C@@H]4CN(C(=O)CO)C[C@@H]43)c(F)c2)C(=O)O1` [Example 26, N-[((5S)-3-{3-fluoro-4-[exo-(1R,5S)-3-glycoloyl-3-azabicyclo[3.1.0]hex-6-yl]phenyl}-2-oxo-1,3-oxazolidin-5-yl)methyl]propanamide]: the MIC was found to be 1 µg/mL (≈ 2.47 µM) with S. aureus UC9213, 0.5 µg/mL (≈ 1.23 µM) against S. pneumoniae UC9912 and 4 µg/mL (≈ 9.87 µM) in the assay with H. influenzae 30063 (setting [1]).
On to `CCC(=O)NC[C@H]1CN(c2ccc([C@H]3[C@@H]4CN(C(=O)COC)C[C@@H]43)c(F)c2)C(=O)O1` [Example 27, N-[((5S)-3-{3-fluoro-4-[exo-(1R,5S)-3-methoxyacetyl-3-azabicyclo[3.1.0]hex-6-yl]phenayl}-2-oxo-1,3-oxazolidin-5-yl)methyl]propanamide], for which the MIC against S. aureus UC9213 was 2 µg/mL (≈ 4.77 µM); with S. pneumoniae UC9912, 0.5 µg/mL (≈ 1.19 µM); with H. influenzae 30063 (setting [1]), 8 µg/mL (≈ 19.1 µM).
For `CCC(=O)NC[C@H]1CN(c2ccc([C@H]3[C@@H]4CN(C(=O)[C@@H](O)CO)C[C@@H]43)c(F)c2)C(=O)O1` [Example 28, N-[((5S)-3-{3-fluoro-4-[exo-(1R,5S)-3-((2S)-2,3-dihydroxypropanoyl)-3-azabicyclo[3.1.0]hex-6-yl]phenyl}-2-oxo-1,3-oxazolidin-5-yl)methyl]propanamide], in that order: 4 µg/mL (≈ 9.19 µM), 4 µg/mL (≈ 9.19 µM) and 8 µg/mL (≈ 18.4 µM).
In the case of `CC(=O)NC[C@H]1CN(c2ccc([C@H]3[C@@H]4CN(C(=O)[C@H](C)O)C[C@@H]43)c(F)c2)C(=O)O1` [Example 29, N-[((5S)-3-{3-fluoro-4-[exo-(1R, 5S)-3-(2-(S)-hydroxypropanoyl)-3-azabicyclo[3.1.0]hex-6-yl]phenyl}-2-oxo-1,3-oxazolidin-5-yl)methyl]acetamide], the MIC is 4 µg/mL (≈ 9.87 µM) against S. aureus UC9213, 2 µg/mL (≈ 4.93 µM) in the assay on S. pneumoniae UC9912 and 16 µg/mL (≈ 39.5 µM) in the assay on H. influenzae 30063 (setting [1]).
For `CC(=O)NC[C@H]1CN(c2ccc([C@H]3[C@@H]4CN(C(=O)C5CC5)C[C@@H]43)c(F)c2)C(=O)O1` [Example 30, N-[((5S)-3-{3-fluoro-4-[exo-(1R,5S)-3-cyclopropanecarbonyl-3-azabicyclo[3.1.0]hex-6-yl]phenyl}-2-oxo-1,3-oxazolidin-5-yl)methyl]acetamide], the results for the MIC with S. aureus UC9213, in the assay with S. pneumoniae UC9912 and in the assay on H. influenzae 30063 (setting [1]) were 4 µg/mL (≈ 9.96 µM), 4 µg/mL (≈ 9.96 µM) and 16 µg/mL (≈ 39.9 µM), respectively.
Consider `CC(=O)NC[C@H]1CN(c2ccc([C@H]3[C@@H]4CN(C(=O)C5(O)CC5)C[C@@H]43)c(F)c2)C(=O)O1` [Example 31, N-[((5 S)-3-{3-fluoro-4-[exo-(1R,5S)-3-(1-hydroxy-cyclopropanecarbonyl)-3-azabicyclo[3.1.0]hex-6-yl]phenyl}-2-oxo-1,3-oxazolidin-5-yl)methyl]acetamide], for which the MIC with S. aureus UC9213 came out at 2 µg/mL (≈ 4.79 µM); against S. pneumoniae UC9912, 2 µg/mL (≈ 4.79 µM); in the assay on H. influenzae 30063 (setting [1]) it was 16 µg/mL (≈ 38.3 µM).
As for `CC(=O)NC[C@H]1CN(c2ccc([C@H]3[C@@H]4CN(C(=O)C(C)(C)O)C[C@@H]43)c(F)c2)C(=O)O1` [Example 32, N-[((5S)-3-{3-fluoro-4-[exo-(1R,5S)-3-(2-hydroxy-2-methyl-propanoyl)-3-azabicyclo[3.1.0]hex-6-yl]phenyl}-2-oxo-1,3-oxazolidin-5-yl)methyl]acetamide], the MIC was determined as 2 µg/mL (≈ 4.77 µM) against S. aureus UC9213, 0.5 µg/mL (≈ 1.19 µM) in the assay with S. pneumoniae UC9912 and 8 µg/mL (≈ 19.1 µM) in the assay with H. influenzae 30063 (setting [1]).
For `CC(=O)NC[C@H]1CN(c2ccc([C@H]3[C@@H]4CN(C(=O)[C@@H](O)C(F)(F)F)C[C@@H]43)c(F)c2)C(=O)O1` [Example 33, N-[((5S)-3-{3-fluoro-4-[exo-(1R,5S)-3-(3,3,3-trifluoro-2-(S)-hydroxypropanoyl)-3-azabicyclo[3.1.0]hex-6-yl]phenyl}-2-oxo-1,3-oxazolidin-5-yl)methyl]acetamide], in that order: 2 µg/mL (≈ 4.35 µM), 2 µg/mL (≈ 4.35 µM) and 16 µg/mL (≈ 34.8 µM).
As to `CC(=O)NC[C@H]1CN(c2ccc([C@H]3[C@@H]4CN(C(=O)C(F)F)C[C@@H]43)c(F)c2)C(=O)O1` [Example 34, N-[((5S)-3-{3-fluoro-4-[exo-(1R,5S)-3-difluoroacetyl-3-azabicyclo[3.1.0]hex-6-yl]phenyl}-2-oxo-1,3-oxazolidin-5-yl)methyl]acetamide], the MIC came to 2 µg/mL (≈ 4.86 µM) in the assay on S. aureus UC9213; 1 µg/mL (≈ 2.43 µM) against S. pneumoniae UC9912; 8 µg/mL (≈ 19.4 µM) in the assay with H. influenzae 30063 (Haemophilus influenzae, 30063, read-out: H. influenzae 30063 MIC).
On to `CC(=O)NC[C@H]1CN(c2ccc([C@H]3[C@@H]4CN(C(=O)CN)C[C@@H]43)c(F)c2)C(=O)O1` [Example 35, N-[((5S)-3-{3-fluoro-4-[exo-(1R,5S)-3-aminoacetyl-3-azabicyclo[3.1.0]hex-6-yl]phenyl}-2-oxo-1,3-oxazolidin-5-yl)methyl]acetamide], for which the MIC with S. aureus UC9213 turned out to be 8 µg/mL (≈ 20.5 µM); against S. pneumoniae UC9912, 2 µg/mL (≈ 5.12 µM); in the assay with H. influenzae 30063 (setting [1]) it was 16 µg/mL (≈ 41 µM).
In the case of `CC(=O)NCC(=O)N1C[C@@H]2[C@H](C1)[C@H]2c1ccc(N2C[C@H](CNC(C)=O)OC2=O)cc1F` [Example 36, N-[((5S)-3-{3-fluoro-4-[exo-(1R,5S)-3-acetylaminoacetyl-3-azabicyclo[3.1.0]hex-6-yl]phenyl}-2-oxo-1,3-oxazolidin-5-yl)methyl]acetamide], the results for the MIC with S. aureus UC9213, against S. pneumoniae UC9912 and in the assay on H. influenzae 30063 (setting [1]) were 8 µg/mL (≈ 18.5 µM), 4 µg/mL (≈ 9.25 µM) and 32 µg/mL (≈ 74 µM), respectively.
Turning to `CC(=O)NC[C@H]1CN(c2ccc([C@H]3[C@@H]4CN(C(=O)c5ccno5)C[C@@H]43)c(F)c2)C(=O)O1` [Example 37, N-[((5S)-3-{3-fluoro-4-[exo-(1R,5S)-3-(isoxazole-5-carbonyl)-3-azabicyclo[3.1.0]hex-6-yl]phenyl}-2-oxo-1,3-oxazolidin-5-yl)methyl]acetamide], the values for the MIC in the assay on S. aureus UC9213, against S. pneumoniae UC9912 and in the assay on H. influenzae 30063 (setting [1]) were 1 µg/mL (≈ 2.33 µM), 0.5 µg/mL (≈ 1.17 µM) and 8 µg/mL (≈ 18.7 µM), respectively.

(Values after patent publication US7279494B2, “Antimicrobial [3.1.0] bicyclohexylphenyl-oxazolidinone derivatives and analogues” (Pfizer Inc., priority 2003, dated 2007).)
